Source: US10208037B2, “Toll-like receptor-7 and -8 modulatory 1H imidazoquinoline derived compounds” (The University of Kansas, priority 2011, dated 2019)

What was measured:
Format in all cases: cell-based
[1] = tested on: TLR7 and TLR8-induced cytokine and chemokine release; assay: Inhibition of TLR7- and TLR8-mediated cytokine and chemokine production in human PBMCs; details: hPBMCs
Method: FIGS. 22A-[…] illustrate inhibition of TLR7-mediated (FIGS. 22A-22D) and TLR8-mediated (FIGS. 22E-[…]) proinflammatory cytokine production in human peripheral blood mononuclear cells by chloroquine or 47a. Proinflammatory cytokines were assayed by cytokine bead array methods after incubation of hPBMCs with graded concentrations of the test compound for 12 h in the presence of 10 μg/ml of either CL075 (TLR8 agonist) or gardiquimod (TLR7 agonist). FIGS. 23A-23D illustrate inhibition of TLR7-mediated (FIGS. 23A-23B) and TLR8-mediated (FIGS. 23C-3D) chemokine production in human peripheral blood mononuclear cells by chloroquine or 47a. Chemokines were assayed by cytokine bead array methods after incubation of hPBMCs with graded concentrations of the test compound for 12 h in the presence of 10 μg/ml of either CL075 (TLR8 agonist) or gardiquimod (TLR7 agonist). Aliquots (10^6 cells in 100 μL) of hPBMCs isolated from blood obtained from healthy human donors after informed consent by conventional Ficoll-Hypaque gradient centrifugation were stimulated for 12 h with graded concentrations of test compounds. The supernatant was isolated by centrifugation, diluted 1:20, and cytokines and chemokines were assayed in triplicate using analyte-specific cytokine/chemokine bead array assays as reported by us previously.^74

TLR8 [2] = target: T1, TLR8 (Homo sapiens, UniProt Q9NR97); assay: TLR8 reporter gene assay, antagonism (CL075 as agonist); details: for IC50: agonist CL075 1 μg/mL, ND = not detected
T1 construct: expressed in transfected cells; host or cells: HEK293 (HEK-Blue-8 cells)
T1 sequence (Q9NR97 27-1041): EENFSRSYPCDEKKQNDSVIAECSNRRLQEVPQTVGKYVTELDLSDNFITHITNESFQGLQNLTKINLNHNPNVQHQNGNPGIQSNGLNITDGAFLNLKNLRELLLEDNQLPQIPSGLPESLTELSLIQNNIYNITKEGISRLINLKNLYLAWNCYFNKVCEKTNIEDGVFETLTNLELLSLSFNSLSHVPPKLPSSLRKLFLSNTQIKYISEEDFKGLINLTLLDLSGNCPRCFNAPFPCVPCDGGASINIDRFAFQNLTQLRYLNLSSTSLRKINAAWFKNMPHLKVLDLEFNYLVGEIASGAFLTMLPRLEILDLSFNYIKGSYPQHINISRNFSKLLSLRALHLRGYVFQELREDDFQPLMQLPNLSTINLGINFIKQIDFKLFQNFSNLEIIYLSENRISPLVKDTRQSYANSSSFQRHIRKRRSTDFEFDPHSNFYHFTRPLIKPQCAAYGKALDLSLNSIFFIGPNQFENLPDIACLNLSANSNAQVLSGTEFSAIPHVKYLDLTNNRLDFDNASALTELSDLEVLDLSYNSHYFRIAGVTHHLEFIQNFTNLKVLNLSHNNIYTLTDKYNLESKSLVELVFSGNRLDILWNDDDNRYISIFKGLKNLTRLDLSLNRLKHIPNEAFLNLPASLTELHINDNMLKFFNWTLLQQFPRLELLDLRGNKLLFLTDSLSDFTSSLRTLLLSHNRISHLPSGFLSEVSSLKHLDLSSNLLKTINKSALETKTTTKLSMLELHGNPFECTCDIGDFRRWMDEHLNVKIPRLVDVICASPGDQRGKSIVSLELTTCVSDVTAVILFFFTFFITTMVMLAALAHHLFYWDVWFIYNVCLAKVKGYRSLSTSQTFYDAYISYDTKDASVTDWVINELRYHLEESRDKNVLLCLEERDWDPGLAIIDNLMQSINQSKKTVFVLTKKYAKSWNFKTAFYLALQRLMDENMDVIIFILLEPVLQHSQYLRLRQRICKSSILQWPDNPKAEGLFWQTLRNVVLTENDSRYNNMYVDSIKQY
Source text: (§1) The induction of NF-κB was quantified using HEK-Blue-3, HEK-Blue-7 and HEK-Blue-8 cells as previously described by us.^8,24,51 HEK293 cells were stably transfected with human TLR3 (or human TLR7 or human TLR8), MD2, and secreted alkaline phosphatase (sAP), and were maintained in HEK-Blue™ Selection medium containing zeocin and normocin. Stable expression of secreted alkaline phosphatase (sAP) under control of NF-κB/AP-1 promoters is inducible by the TLR3 (or TLR7 or TLR8) agonists, and extracellular sAP in the supernatant is proportional to NF-κB induction. HEK-Blue cells were incubated at a density of ˜10^5 cells/ml in a volume of 80 μl/well, in 384-well, flat-bottomed, cell culture-treated microtiter plates until confluency was achieved, and subsequently graded concentrations of stimuli. sAP was assayed spectrophotometrically using an alkaline phosphatase-specific chromogen (present in HEK-detection medium as supplied by the vendor) at 620 nm.
(§2) Antagonism assays were done as described by us earlier^73 using the following agonists at a constant concentration: TLR3 Poly(I:C) (10 ng/mL); TLR7: gardiquimod (1 μg/mL); TLR8: CL075 (1 μg/mL) mixed with graded concentrations of the test compounds.

TLR7 [3] = target: T2, TLR7 (Homo sapiens, UniProt Q9NYK1); assay: TLR7 reporter gene assay, antagonism (gardiquimod as agonist)
T2 construct: expressed in transfected cells; host or cells: HEK293 (HEK-Blue-7 cells)
T2 sequence (Q9NYK1 27-1049): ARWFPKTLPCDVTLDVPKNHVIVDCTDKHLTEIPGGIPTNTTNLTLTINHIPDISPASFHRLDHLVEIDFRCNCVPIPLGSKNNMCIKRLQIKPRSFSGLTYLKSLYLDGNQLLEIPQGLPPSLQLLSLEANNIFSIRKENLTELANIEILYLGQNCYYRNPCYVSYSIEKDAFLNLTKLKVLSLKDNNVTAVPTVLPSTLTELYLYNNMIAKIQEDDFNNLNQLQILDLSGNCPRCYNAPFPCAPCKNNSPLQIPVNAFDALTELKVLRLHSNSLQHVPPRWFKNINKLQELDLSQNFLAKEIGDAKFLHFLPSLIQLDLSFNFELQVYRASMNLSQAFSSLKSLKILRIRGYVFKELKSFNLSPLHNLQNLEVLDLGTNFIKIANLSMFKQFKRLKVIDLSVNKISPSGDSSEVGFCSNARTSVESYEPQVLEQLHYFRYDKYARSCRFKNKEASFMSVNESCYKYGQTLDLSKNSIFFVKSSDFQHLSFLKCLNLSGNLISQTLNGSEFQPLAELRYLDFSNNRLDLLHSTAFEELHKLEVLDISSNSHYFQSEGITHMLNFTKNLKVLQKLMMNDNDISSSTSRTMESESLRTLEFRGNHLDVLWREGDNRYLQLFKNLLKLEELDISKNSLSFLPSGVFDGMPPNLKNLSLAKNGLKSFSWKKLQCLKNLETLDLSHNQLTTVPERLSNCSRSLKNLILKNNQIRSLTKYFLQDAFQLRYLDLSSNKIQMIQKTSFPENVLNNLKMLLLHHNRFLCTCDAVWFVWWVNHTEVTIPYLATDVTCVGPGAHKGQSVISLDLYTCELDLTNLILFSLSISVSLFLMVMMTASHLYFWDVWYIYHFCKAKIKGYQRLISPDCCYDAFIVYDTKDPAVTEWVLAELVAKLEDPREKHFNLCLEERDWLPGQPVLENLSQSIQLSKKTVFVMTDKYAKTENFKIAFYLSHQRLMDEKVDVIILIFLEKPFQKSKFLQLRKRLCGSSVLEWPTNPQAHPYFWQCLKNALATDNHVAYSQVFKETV
Source text: as §1, §2

TLR8 [4] = target: T1, TLR8; assay: TLR8 reporter gene assay (NF-κB induction, HEK-Blue-8 cells), agonism
Source text: (§3) NF-κB induction: The induction of NF-κB was quantified using HEK-Blue-7 cells and HEK-Blue-8 cells as previously described by us.^8,24 HEK293 cells were stably transfected with human TLR7 (or human TLR8), MD2, and secreted alkaline phosphatase (sAP), and were maintained in HEK-Blue™ Selection medium containing zeocin and normocin. Stable expression of secreted alkaline phosphatase (sAP) under control of NF-κB/AP-1 promoters is inducible by the TLR7 (or TLR8) agonists, and extracellular sAP in the supernatant is proportional to NF-κB induction. HEK-Blue cells were incubated at a density of […] in a volume of 80 μL/well, in 384-well, flat-bottomed, cell culture-treated microtiter plates until confluency was achieved, and subsequently graded concentrations of stimuli. sAP was assayed spectrophotometrically using an alkaline phosphatase-specific chromogen (present in HEK-detection medium as supplied by the vendor) at 620 nm.
as §1

TLR7 [5] = target: T2, TLR7; assay: TLR7 reporter gene assay (NF-κB induction, HEK-Blue-7 cells), agonism; details: Table 1; ND = not detected; read-out: TLR7 Agonism
Source text: as §3, §1

Row | Compound | TLR8 antagonistic activity (in words) (TLR8 [2]) | IC50 (TLR8 [2]) | TLR7 antagonistic activity (in words) (TLR7 [3]) | IC50 (TLR7 [3]; agonist gardiquimod 1 μg/mL, ND = not detected) | TLR8-agonistic activity (in words) (TLR8 [4]) | EC50 (TLR7 [5]) | Inhibition of TNF-α and IL-1β production (in words) [1]
1 | CCN(CC)CCCC(C)Nc1ccnc2cc(Cl)ccc12 (stereo not shown) [Chloroquine, reference compound] |  |  |  |  |  |  | feeble inhibitor
2 | Nc1nc2ccccc2c2c1nc(CCCCc1nc3c(N)nc4ccccc4c3n1Cc1ccccc1)n2Cc1ccccc1 [Compound 47b, 2,2′-(butane-1,4-diyl)bis(1-benzyl-1H-imidazo[4,5-c]quinolin-4-amine)] | potent antagonistic activity | 15.6 µM | potent antagonistic activity |  |  |  | 
3 | Nc1nc2ccccc2c2c1nc(CCCCCCc1nc3c(N)nc4ccccc4c3n1Cc1ccccc1)n2Cc1ccccc1 [Compound 49a, 2,2′-(hexane-1,6-diyl)bis(1-benzyl-1H-imidazo[4,5-c]quinolin-4-amine)] | potent antagonistic activity | 10.9 µM | potent antagonistic activity |  |  |  | 

More lines, main results first:

Row | TLR8 antagonistic activity (in words) (TLR8 [2]) | IC50 (TLR8 [2]) | TLR7 antagonistic activity (in words) (TLR7 [3]) | IC50 (TLR7 [3]; agonist gardiquimod 1 μg/mL, ND = not detected) | TLR8-agonistic activity (in words) (TLR8 [4]) | EC50 (TLR7 [5]) | Compound | Inhibition of TNF-α and IL-1β production (in words) [1]
4 | potent antagonistic activity | 4.65 µM | potent antagonistic activity | 17.9 µM |  |  | Nc1nc2ccccc2c2c1nc(CCCCCCCCCCc1nc3c(N)nc4ccccc4c3n1Cc1ccccc1)n2Cc1ccccc1 [Compound 49b, 2,2′-(decane-1,10-diyl)bis(1-benzyl-1H-imidazo[4,5-c]quinolin-4-amine)] | 
5 |  |  |  |  | dual TLR7/TLR8 activity | 5.4 µM | CCCCc1nc2c(N)nc3ccc(NC(=O)CCCCCCCCCCC(=O)Nc4ccc5nc(N)c6nc(CCCC)n(Cc7ccc(CN)cc7)c6c5c4)cc3c2n1Cc1ccc(CN)cc1 [Compound 55c, N^1,N^12-bis(4-amino-1-(4-(aminomethyl)benzyl)-2-butyl-1H-imidazo[4,5-c]quinolin-8-yl) dodecanediamide] | 
